Data as given in patent publication US7015325B2, “Tryptase inhibitors” (ALTANA Pharma AG, priority 1999, dated 2006).
Counter-ions that a name gives are not always drawn.

target: human tryptase; experiment: Inhibition of human tryptase (apparent dissociation constant, chromogenic substrate tos-Gly-Pro-arg-pNA); format: biochemical; settings: apparent dissociation constant in presence of substrate; heparin 0.1–50 μg/ml; equilibrium conditions; read-out: Kiapp
Text: The documented pathophysiological effects of mast cell tryptase are caused directly by the enzymatic activity of the protease. Accordingly, they are reduced or blocked by inhibitors which inhibit the enzymatic activity of the tryptase. A suitable measure for the affinity of a reversible inhibitor to the target protease is the equilibrium dissociation constant Ki of the enzyme-inhibitor complex. This Ki value can be determined via the effect of the inhibitor on the tryptase-induced cleavage of a chromogenic peptide-p-nitroanilide substrate or a fluorogenic peptide-aminomethylcoumarin substrate.
The dissociation constants for the tryptase-inhibitor complexes are determined under equilibrium conditions in accordance with the general proposals of Bieth (Bieth J G, Pathophysiological Interpretation of kinetic constants of protease inhibitors, Bull. Europ. Physiopath. Resp. 16:183–195, 1980) and the methods of Sommerhoff et al. (Sommerhoff C P et al., A Kazal-type inhibitor of human mast cell tryptase: Isolation from the medical leech Hirudo medicinalis, characterization, and sequence analysis, Biol. Chem. Hoppe-Seyler 375: 685–694, 1994).
Human tryptase is isolated from lung tissue or prepared recombinantly; the specific activity of the protease, determined by titration, is usually greater than 85% of the theoretical value. In the presence of heparin (0.1–50 μg/ml) for stabilizing the protease, constant amounts of the tryptase are incubated with increasing amounts of the inhibitors. After an equilibrium between the reaction partners has formed, the remaining enzyme activity after addition of the peptide-p-nitroanilide substrate tos-Gly-Pro-arg-pNA is determined and the cleavage of the latter is monitored at 405 nm for 3 min. Alternatively, the remaining enzymatic activity can also be determined using fluorogenic substrates. The apparent dissociation constants Kiapp (i.e. in the presence of substrate) are subsequently determined by adapting the enzyme rates to the general equation for reversible inhibitors (Morrison J F, Kinetics of the reversible inhibition of enzyme-catalyzed reactions by tight-binding inhibitors, Biochim. Biophys. Acta 185, 269–286, 1969) using non-linear regression: VI/V0=1−{Et+It+Kiapp−[(Et+It+Kiapp)^2−4EtIt]^1/2}/2Et VI and V0 are the rates in the presence and absence, respectively, of the inhibitor, and Et and It are the tryptase and inhibitor concentrations, respectively.
The apparent dissociation constants determined for the compounds according to the invention are shown in Table A below, where the numbers of the compounds correspond to the numbers of the compounds in the examples.

Structure (SMILES) | Ki
NC[C@H]1CC[C@H](C(=O)N2CCN(C(=O)OCCOCC#CCOCCOC(=O)N3CCN(C(=O)[C@H]4CC[C@H](CN)CC4)CC3)CC2)CC1 [Compound 1, 1,4-Bis-[4-(trans-4-aminomethylcyclohexylcarbonyl)-1-piperazinylcarbonyl-1-oxyethyl-2-oxy]-2-butyne dihydrochloride] | 86 nM
NCc1ccc(CNC(=O)N2CCN(C(=O)OCCOCC#CCOCCOC(=O)N3CCN(C(=O)NCc4ccc(CN)cc4)CC3)CC2)cc1 [Compound 2, 1,4-Bis-[4-(4-aminomethylbenzylaminocarbonyl)-1-piperazinylcarbonyl-1-oxyethyl-2-oxy]-2-butyne dihydrochloride] | 0.35 nM
NCc1cccc(CNC(=O)N2CCN(C(=O)OCCOCC#CCOCCOC(=O)N3CCN(C(=O)NCc4cccc(CN)c4)CC3)CC2)c1 [Compound 3, 1,4-Bis-[4-(3-aminomethylbenzylaminocarbonyl)-1-piperazinylcarbonyl-1-oxyethyl-2-oxy]-2-butyne dihydrochloride] | 8 nM
NCc1ccc(CNC(=O)N2CCN(C(=O)OCC#CC#CCOC(=O)N3CCN(C(=O)NCc4ccc(CN)cc4)CC3)CC2)cc1 [Compound 4, 1,6-Bis-[4-(4-aminomethylbenzylaminocarbonyl)-1-piperazinylcarbonyl-1-oxy]-2,4-hexadiyne dihydrochloride] | 0.25 nM
NCc1ccc(CNC(=O)N2CCN(C(=O)OCCCCC#CC#CCCCCOC(=O)N3CCN(C(=O)NCc4ccc(CN)cc4)CC3)CC2)cc1 [Compound 5, 1,12-Bis-[4-(4-aminomethylbenzylaminocarbonyl)-1-piperazinylcarbonyl-1-oxy]-5,7-dodecadiyne dihydrochloride] | 12 nM
NCc1cccc(CNC(=O)N2CCN(C(=O)OCCCCC#CC#CCCCCOC(=O)N3CCN(C(=O)NCc4cccc(CN)c4)CC3)CC2)c1 [Compound 6, 1,12-Bis-[4-(3-aminomethylbenzylaminocarbonyl)-1-piperazinylcarbonyl-1-oxy]-5,7-dodecadiyne dihydrochloride] | 1.4 nM
NCc1cccc(CNC(=O)N2CCN(C(=O)OCC#CC#CCOC(=O)N3CCN(C(=O)NCc4cccc(CN)c4)CC3)CC2)c1 [Compound 7, 1,6-Bis-[4-(3-aminomethylbenzylaminocarbonyl)-1-piperazinylcarbonyl-1-oxy]-2,4-hexadiyne dihydrochloride] | 8 nM
